Experimental data taken from article PMC4552636, “Pharmacokinetics, Tissue Distribution, and Anti-Lipogenic/Adipogenic Effects of Allyl-Isothiocyanate Metabolites” (PLoS ONE, 2015).

Key:
Hepa 1–6 cells = assay: Oleic acid-induced lipid accumulation in hepatocytes, Oil Red O; type: cell-based, mouse; conditions: hepatocytes (Hepa 1–6), 100 μM oleic acid, 24h
Procedure: HepG2 (human hepatoma cell line) and Hepa 1–6 (mouse hepatoma cell line) cells were obtained from ATCC (Manassas, VA, USA) and grown in high glucose DMEM supplemented with 10% FBS, 100 U/mL penicillin, and 100 μg/mL streptomycin. For examination of lipid accumulation in hepatocytes, the cells were treated with AITC metabolites in presence of 100 μM oleic acid for 24h.
(§1) Oil Red O staining was performed on day 8. Prior to quantification, the cells were fixed in 10% neutral formalin for 1 h at room temperature, washed with PBS, and stained for 1 h with 0.5% Oil Red O in 60% isopropanol. After staining, the cells were washed with distilled water and observed under a fluorescence microscope. […] The optical density was measured at a wavelength of 490 nm using microplate reader (Tecan Infinite 200 PRO, Männedorf, Switzerland).
Fig 6 Inhibitory effects of GSH-AITC and NAC-AITC on oleic acid-induced lipid accumulation. […] The intracellular triglyceride levels were indexed by quantifying the Oil Red O extracted from the cells by spectroscopy performed at an […] of 490 nm (B). The SCD1, FAS, and AMPK levels in cell lysates were detected by western blot analysis. To compare and quantify levels of proteins, the density of each band was measured using ImageJ software with β–actin as an internal reference (C). […]

[1] = Tissue distribution of AITC metabolites after oral AITC (HPLC); conditions: rat liver, kidney, spleen, heart, lung; 0.5-8 h after oral AITC
Procedure: (§5) Male Sprague-Dawley rats with an average weight of approximately 250 g were purchased from Orient Bio Inc. (Seoul, South Korea) and acclimatized to the laboratory conditions (12:12 h light-dark cycle, temperature of 24°C, and humidity of 55%) for 1 week. Animals were provided the American Institute of Nutrition-93 (AIN-93) diet and water ad libitum during acclimation. On the dosing day, rats were fasted for 6 h and then administered AITC (25 mg/kg of body weight) as a suspension (1 mL) in polyethylene glycol using an oral zonde needle. After a single-dose oral administration of AITC, rats were sacrificed under anesthesia (80 mg/kg ketamine + 8 mg/kg xylazine) at different time points after dosing. Blood samples were collected from the abdominal aorta in heparinized syringes. Samples were immediately centrifuged at 3,000 × g for 10 min and the resulting plasma samples were kept frozen at -80°C until analysis. The liver, heart, spleen, kidney, and lung were rapidly collected from each animal at different time points, individually wrapped in aluminum foil, snap-frozen in liquid nitrogen, and stored frozen at -80°C until use.
(§6) Dissected tissue was thawed, rinsed with ice-cold saline, blotted dry, and weighed. Each tissue sample (100 mg) was homogenized in 100 μL phosphate-buffered saline (PBS) using homogenizer (MP Fastprep instrument, MP Biomedical, Solon, OH, USA). The homogenates were transferred into clean tubes and mixed with 700 μL of methanol by vortexing for 5 min. Homogenates were centrifuged at 15,700 × g for 15 min at 4°C, and the supernatants were collected and evaporated to dryness at room temperature under a stream of nitrogen gas. The residue was diluted with 100 μL 70% methanol.
(§7) HPLC analysis was performed using a Jasco HPLC system equipped with a Jasco UV-2089 plus quaternary gradient pump, a Jasco MD-2010 plus multiple-wave-length detector, and Borwin chromatography software, version 1.5 (Jasco Inc., Easton, MD, USA). Separation was achieved using an XTerra RP18 column (4.6 × 250mm, 5 μM, Waters, Milford, MA, USA). […]

3T3-L1 preadipocytes = assay: MDI-induced adipocyte differentiation of 3T3-L1 preadipocytes, Oil Red O staining; type: cell-based; conditions: treated days 0 to 2, stained after 8 days
Procedure: (§2) 3T3-L1 pre-adipocyte cells were purchased from the ATCC (Manassas, VA, USA). Cells were maintained in DMEM supplemented with 10% calf serum (CS), 100 U/mL penicillin and 100 μg/mL streptomycin at 37°C in a 5% CO2 incubator. The cells were seeded onto a 6-well plate at a density of 4 × 10^5 cells per well, and cell differentiation was induced. In brief, beginning at 2 days post-confluence (day 0), cells were incubated for 2 days in DMEM containing 0.5 mM 3-isobutyl-1-methylxanthine (IBMX), 1 μM dexamethasone, 1 μg/mL of insulin, and 10% fetal bovine serum (FBS). After induction, the medium was replaced with DMEM containing 10% FBS and 1 μg/mL of insulin, and the cells were incubated for 2 more days, after which the cells were maintained in DMEM containing 10% FBS until they reached maturity. From days 0 to 2, the cells were exposed to the AITC metabolites.
as §1

[2] = Plasma pharmacokinetics of AITC metabolites after oral administration of AITC (HPLC); type: in vivo; conditions: male, Sprague-Dawley, rat plasma, metabolite after oral AITC 25 mg/kg, n = 5; for Cmax: read-out: Cmax (maximum plasma concentration); for half-life: read-out: T1/2 (elimination half-life) (converted); for AUC(0-t): unit printed in text b47 only, read-out: AUC (0-8h)
Procedure: Methanol (700 μL) was added to 300 μL of serum and the mixture was mixed by vortexing for 5 min. […] The internal standards (synthesized metabolites) were added to the plasma samples for validation.
(§3) Non-compartmental (mode-independent) nutrikinetic parameters were derived using PK Solutions software version 2.0 (Summit Research Services, Montrose, CO, USA). The maximum plasma concentration (Cmax), time to maximum plasma concentration (Tmax), and the elimination half-life (t1/2) were estimated from the plasma concentration-time curve. The area under the curve (AUC) for the plasma concentration over time was calculated using the trapezoidal rule.
A validated analytical method was employed to study the pharmacokinetic profiles of AITC metabolites after oral administration of 25 mg/kg AITC dose to rats. The mean plasma concentration-time curves of the AITC metabolites and the corresponding pharmacokinetic parameters are shown in Fig 2B and 2C . The pharmacokinetic analysis was performed with PK solution 2.0 software, using a non-compartmental model for data analysis. After oral administration of AITC, GSH-AITC and NAC-AITC were detected in the plasma. The Tmax values for GSH-AITC and NAC-AITC were similar at 0.5h. […] The areas under the curve of the concentration-time profile (AUC0-8h) of GSH-AITC and NAC-AITC were 1.3 and 12.33 μg·h/mL, respectively.

[3] = Urine concentration and pharmacokinetics of AITC metabolites after oral AITC (HPLC); type: in vivo; conditions: rat urine; for Detection in urine samples: HPLC
Procedure: as §3
In addition to our evaluations of plasma levels, we also determined the concentration of AITC metabolites in urine using HPLC. […] NAC-AITC was mostly excreted within 8 h (Fig 3C).

mTORC1 = mTORC1 activity (S6K1 and 4EBP1 phosphorylation) during 3T3-L1 adipocyte differentiation, western blot; type: cell-based
Procedure: as §2
(§4) 3T3-L1 adipocytes were scraped into a lysis buffer containing 40 mM HEPES (pH 7.4), 120 mM NaCl, 1 mM EDTA, 50 mM NaF, 1.5 mM Na3VO4, 10 mM β–glycerophosphate, and 1% Triton X-100, supplemented with EDTA-free phosphatase and a protease inhibitor cocktail (#78441; Thermo Scientific, Waltham, MA, USA). Next, the cells were lysed by sonication twice for 15 sec on ice using a sonicator (Misonix, Farmingdale, NY, USA). […]

PPAR-γ, C/EBPα, and FAS = assay: Western blotting of adipogenesis proteins in 3T3-L1 cells; type: cell-based
Procedure: as §2, §4

[4] = set-up: method as in PMID 3961819; conditions: cellular medium; cited from earlier work
[5] = rat, in vivo, po
Procedure: as §5, §6, §7

[6] = male, Sprague-Dawley, 25 mg/kg, n = 5

Tmax [2] [h]	Cmax [2] [ng/mL]	half-life [2] [h]	AUC(0-t) [2] [ng·h/mL]	Cmax [3, 6] [ng/mL]	Tmax [3, 6] [h]	AUC(0-t) ([3]; male, Sprague-Dawley, 25 mg/kg, n = 5, read-out: AUC (0-8h) in urine) [ng·h/mL]	half-life ([3]; male, Sprague-Dawley, 25 mg/kg, n = 5, read-out: T1/2 in urine (converted)) [h]	Time within which mostly excreted in urine [3] [h]	Detection in urine samples [3]	SMILES	Oleic acid-induced lipid accumulation (Hepa 1–6 cells)	Tissue deposition (by tissue weight) [1]	Differentiation of 3T3-L1 preadipocytes (Oil Red O) (3T3-L1 preadipocytes)	S6K1 phosphorylation on Thr389 (mTORC1)	Levels of PPAR-γ, C/EBPα, and FAS (PPAR-γ, C/EBPα, and FAS)	Fraction converted to free AITC [4]	Detection of parent molecule in plasma and tissues [5]
0.5	14000	2.65	12300	2260	2.66	8110	1.44	≤ 8	successfully quantified	C=CCNC(=S)SC[C@H](NC(C)=O)C(=O)O [NAC-AITC, N-acetyl-S-(N-allylthiocarbamoyl)- l-cysteine]	suppressed	observed in the kidney	inhibited differentiation of preadipocytes	reduced	reduced		
0.5	1470	0.92	1300						not detected	C=CCNC(=S)SC[C@H](NC(=O)CC[C@H](N)C(=O)O)C(=O)NCC(=O)O [GSH-AITC, S-(N-allylthiocarbamoyl)-L-glutathione]	suppressed	observed in the liver, followed by the kidney, spleen, heart, and lung	inhibited differentiation of preadipocytes	reduced	reduced	9–15%	
										C=CCN=C=S [AITC, Allyl-isothiocyanate]							not detected
